Columns and labels:
[1] = system: IL-17 production in human blood; test: Effect on IL-17 production in human blood; assay type: cell-based; conditions: 72 h; 10 μM test compound; human peripheral blood, IL-23 and Dynabeads stimulation, 3 days; read-out: percent inhibition at 10 μM (IL-17 production)
Outline: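 Heparinized healthy-donor whole blood pre-incubated with compound 30 min at 37° C, then stimulated with IL-23 (added as 100 ng/mL solution) plus Dynabeads Human for 3 days at 37° C. Supernatant IL-17 measured by ELISA; values given as percent inhibition at 10 μM compound.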

[2] = system: IL-23-induced mouse psoriasis model; test: IL-23-induced mouse psoriasis model; assay type: in vivo; conditions: Balb/c mice, versus the negative control group; for percent inhibition of IL-17A expression: ear tissue
Procedure: Effect in an IL-23-Induced Mouse Psoriasis Model
Mouse IL-23 (500 ng/15 μL, R&D) or PBS (15 μL, negative control group) was administered intradermally in the ear of Balb/c mice (Charles River Japan, male, 7 weeks old) 5 times every other days. Seven hr after IL-23 administration at 8 days after the initial administration (final administration), the mice were anesthetized with isoflurane, and ear thickness was measured with calipers. After the ear thickness was measured, the ear was resected, tissue 8 mm in diameter was punched from an area centering on the IL-23 injection site, and the tissue was weighed. The punched ear tissue was cut in half, and one half was immersion-fixed in 10% neutral buffer formalin solution for use in histopathological evaluation. The other half was immersed in RNAlater (QIAGEN) for at least 18 hr for use in an evaluation of the IL-17A mRNA expression level. The test compound was suspended in 0.5% methylcellulose and administered orally twice daily on consecutive days from 30 min before the initial IL-23 administration to 30 min before the final IL-23 administration.
The change in ear thickness in this model was evaluated by calculating the difference in measured thickness between before IL-23 administration and 7 hr after the final IL-23 administration. In addition, the formalin-fixed tissue was embedded and sectioned, then stained with hematoxylin-eosin. The degree of acanthosis was then evaluated qualitatively by microscopy (classified with a score of 0 to 4). RNA extraction from the ear tissue and quantitative PCR were performed as follows. As described above, ear tissue treated with RNAlater (QIAGEN) was homogenized in 350 μL of RLT buffer (RNeasy mini kit, QIAGEN) and treated (55° C., 10 min) with Proteinase K (QIAGEN). Total RNA was then extracted according to the RNeasy mini kit protocol. The RNA thus obtained was reverse transcribed into cDNA using the High-Capacity RNA-to-cDNA kit (Applied Biosystems), and the expression of each gene was measured by real-time PCR (Viia7™, Applied Biosystems). The PCR buffer used was TaqMan Fast Advanced Master Mix (Applied Biosystems), and TaqMan Gene Expression Assays (Applied Biosystems) Mm00439618_m1 (IL-17A) and 4352341E (β-actin) were used to detect the genes. The IL-17A gene expression level was normalized to the β-actin gene expression level, and the percent inhibition of IL-17A gene expression with the test compound was then calculated.
The results (percent inhibition of ear thickness, acanthosis score and IL-17A gene expression with oral administration of the test compound) measured by the above-mentioned method are shown in Table 10.

IL-17A gene expression = test: Effect on IL-23-induced cytokine expression in mice; assay type: in vivo, mouse; conditions: 30 min before and 8 hr after IL-23, ear of Balb/c mice, versus the negative control group
mouse EAE model = test: Mouse EAE model; assay type: in vivo; conditions: 3 mg/kg oral; C57BL/6J mice; integration value of clinical score for 28 days; versus the negative control group
Procedure: Effect in a Mouse EAE Model
. C57BL/6J mice (10 weeks old, female, Charles River Japan) were grouped based on the body weight, and the MOG emulsion was intradermally administered at two point of the joint of dorsal hindlimb so that the dose was 100 μL/site, 200 μL/mouse. In addition, Pertussis toxin (Merck) was intraperitoneally administered twice on the sensitization day and 2 days thereafter in the dose of 400 ng/200 μL/mouse. The body weight was measured twice a week before onset and everyday (excluding holiday) after onset from the sensitization day. The clinical score was evaluated by the following standard scores of 0 to 5 (0: normal, 0.5: partial paralysis of tail, 1: complete paralysis of tail, 2: partial paralysis of hindlimb, 3: paralysis of lower body, 4: partial paralysis of forelimb, 5: paralysis of both forelimbs or death) by observation everyday (excluding holiday) after the beginning of onset.
The percent inhibition of the clinical score of the test compound administration group relative to that of the control group was calculated using integration value of the clinical score for 28 days.
The results (percent inhibition of clinical score with oral administration of the test compound) measured by the above-mentioned method are shown in Table 12.

[3] = system: T cell-transferred mouse colitis model; test: T cell-transferred mouse colitis model; assay type: in vivo; conditions: 3 mg/kg oral twice daily; SCID mice, 21 days after cell transfer; versus the negative control group
Excerpt: Effect in a T Cell-Transferred Mouse Colitis Model
Balb/c mice (Charles River Japan, female, 8 weeks old) were euthanized, and the spleens were resected, mashed in mesh, and passed through cell strainer to prepare a suspension of splenic cells. The mononuclear cell fraction in the splenic cells was isolated by density-gradient centrifugation, and subjected to hemolysis treatment with ammonium chloride buffer solution (Immuno-Biological Laboratories, Co., Ltd.). The naive T-cells were purified using CD4+CD62L+ T Cell Isolation Kit II (Miltenyi Biotec). The naive T-cells (2×10^5 cells/mouse) were intravenously transferred into SCIDmice (CLEA Japan, female, 8 weeks old). The compound was suspended in 0.5% methyl cellulose, and the suspension was orally administered twice daily on consecutive days from the same evening of the cell transfer. The mice were blinded 20 days after the cell transfer, and the symptom of the stool on floorcloth under blind was evaluated by scores of 1 to 4 (1: normal, 2: loose stool, 3: diarrhea (formed), 4: diarrhea (unformed)) 21 days after the cell transfer. […] The large intestine was washed with saline, and the weight was measured.
The results (percent inhibition of intestinal tract weight and diarrhea score with oral administration of the test compound) measured by the above-mentioned method are shown in Table 11.

Compound | inhibition at 10 µM [1] [%] | percent inhibition of acanthosis score ([2]; 1 mg/kg oral twice daily) [%] | percent inhibition of ear thickness ([2]; 1 mg/kg oral twice daily) [%] | percent inhibition of IL-17A expression ([2]; 1 mg/kg oral twice daily) [%] | percent inhibition of IL-17A gene expression (IL-17A gene expression; 10 mg/kg oral) [%] | percent inhibition of clinical score (mouse EAE model) [%] | percent inhibition of acanthosis score ([2]; 3 mg/kg oral twice daily) [%] | percent inhibition of ear thickness ([2]; 3 mg/kg oral twice daily) [%] | percent inhibition of IL-17A expression ([2]; 3 mg/kg oral twice daily) [%] | percent inhibition of diarrhea score [3] [%] | percent inhibition of intestinal tract weight [3] [%] | percent inhibition of IL-17A gene expression (IL-17A gene expression; 3 mg/kg oral) [%]
COc1ccc2c(n1)CCN(C(=O)[C@H]1C[C@@H](C(=O)O)C1)[C@H]2C(=O)Nc1cc(F)c2c(c1)CCC2(C)C [Example 10, cis-3-(((5R)-5-((7-fluoro-1,1-dimethyl-2,3-dihydro-1H-inden-5-yl)carbamoyl)-2-methoxy-7,8-dihydro-1,6-naphthyridin-6(5H)-yl)carbonyl)cyclobutanecarboxylic acid] | 89.7 | 47 | 52 | 91 | 87 | – | – | – | – | – | – | –
COc1ccc2c(n1)CCN(C(=O)[C@H]1C[C@@H](CC(=O)O)C1)[C@H]2C(=O)Nc1cc(F)c2c(c1)CCC2(C)C [Example 15, (cis-3-(((5R)-5-((7-fluoro-1,1-dimethyl-2,3-dihydro-1H-inden-5-yl)carbamoyl)-2-methoxy-7,8-dihydro-1,6-naphthyridin-6(5H)-yl)carbonyl)cyclobutyl)acetic acid] | 94 | – | – | – | – | 64 | 53 | 61 | 93 | 81 | 58 | 99

Reference: patent US10093629B2, “Heterocyclic compounds and their use as retinoid-related orphan receptor (ROR) gamma-T inhibitors” (Takeda Pharmaceutical Company Limited, priority 2014, dated 2018)
